In US20260070917A1, “CYCLIN DEPENDENT KINASE DEGRADERS AND METHODS OF USE THEREOF” (Differentiated Therapeutics Inc, priority 2023, published 2026):
Read-outs that look alike come from different tables or passages of the source.

Experiments:
Assay type in all cases: cell-based
CDK9 = target: T1, CDK9 (Homo sapiens, UniProt P50750); assay: HiBit Assay Protocol for CDK9 (HIBIT protein quantification, degradation); details: HEK293-CDK9-Hibit cells, compound treatment for 6 hours; for Dmax: read-out: CDK9 HIBIT Protein Quantification Maximum
T1 construct: host or cells: HEK293-CDK9-Hibit
T1 sequence (P50750 whole entry): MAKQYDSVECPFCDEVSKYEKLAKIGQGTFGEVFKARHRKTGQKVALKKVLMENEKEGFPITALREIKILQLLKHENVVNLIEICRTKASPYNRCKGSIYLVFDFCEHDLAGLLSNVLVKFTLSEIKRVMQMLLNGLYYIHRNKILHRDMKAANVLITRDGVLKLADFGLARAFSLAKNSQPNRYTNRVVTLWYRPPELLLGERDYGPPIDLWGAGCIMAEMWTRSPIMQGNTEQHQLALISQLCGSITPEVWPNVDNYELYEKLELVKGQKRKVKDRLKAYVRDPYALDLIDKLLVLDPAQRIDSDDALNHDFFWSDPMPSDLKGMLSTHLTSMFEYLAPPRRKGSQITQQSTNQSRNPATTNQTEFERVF
Summary of the method: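 Degradation read-out: luminescence after lytic HiBiT/LgBiT detection in HEK293-CDK9-HiBiT cells exposed 6 h to 10-point, 3-fold compound dilutions. Signal scaled between 0.1% DMSO-treated cells and medium alone; DC50 fitted from the curve.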

CDK2 = target: T2, CDK2 (Homo sapiens, UniProt P24941); assay: HiBit Assay Protocol for CDK2 (HIBIT protein quantification, degradation); details: HEK293-CDK2-Hibit cells, compound treatment for 6 hours; for DC50: ABS DC50
T2 construct: host or cells: HEK293-CDK2-Hibit
Summary of the method: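 DC50 comes from a fitted curve of remaining CDK2-HiBiT luminescence, referenced to DMSO-treated cells and medium-only wells. HEK293-CDK2-HiBiT cells, plated the previous night, received compounds in a 10-point, 3-fold series for 6 h before lysis with LgBiT-containing Nano-Glo HiBiT reagent.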

CCNE1 = target: T3, CCNE1 (Homo sapiens, UniProt P24864); assay: HiBit Assay Protocol for CCNE1 (HIBIT protein quantification, degradation); details: HEK293-CCNE1-Hibit cells, compound treatment for 6 hours
T3 construct: host or cells: HEK293-CCNE1-Hibit
T3 sequence (P24864 whole entry): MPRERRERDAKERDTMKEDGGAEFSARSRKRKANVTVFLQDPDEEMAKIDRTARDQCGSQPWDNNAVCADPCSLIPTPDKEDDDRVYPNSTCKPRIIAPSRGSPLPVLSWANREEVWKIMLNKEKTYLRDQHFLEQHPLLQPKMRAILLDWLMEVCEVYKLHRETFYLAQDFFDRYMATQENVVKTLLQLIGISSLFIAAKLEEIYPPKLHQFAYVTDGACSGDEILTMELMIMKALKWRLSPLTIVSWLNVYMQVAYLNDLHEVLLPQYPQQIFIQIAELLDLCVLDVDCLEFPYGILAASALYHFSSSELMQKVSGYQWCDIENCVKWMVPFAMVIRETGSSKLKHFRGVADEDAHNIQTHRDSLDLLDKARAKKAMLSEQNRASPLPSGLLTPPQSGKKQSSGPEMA
Summary of the method: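 Degradation readout: lytic Nano-Glo HiBiT luminescence after 6 h exposure of HEK293-CCNE1-HiBiT cells to 10-point, 3-fold serial dilutions. Signal was scaled between medium-only and DMSO-treated wells, and DC50 came from curve fits.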

| SMILES | Dmax (CDK9; 6 h) [%] | CDK2 HIBIT Protein Quantification Maximum (CDK2) [%] | CCNE1 HIBIT Protein Quantification Maximum (CCNE1) [%] | DC50 (CDK2) [nM] | DC50 (CDK9; ABS DC50) [nM] | Dmax (CDK9) [%] |
| --- | --- | --- | --- | --- | --- | --- |
| Cn1c(=O)n(C2CCC(=O)NC2=O)c2cccc(C3CCN(CC4CCN(S(=O)(=O)c5ccc(Nc6ncc7c(n6)N([C@@H]6CCC[C@@H](O)C6)C(=O)C76CC6)cc5)CC4)CC3)c21 (stereo partly shown) [Compound 128] | 34 | 32 | 32 |  |  |  |
| CC1CCCC1N1C(=O)C2(CC2)c2cnc(NC3CCN(S(=O)(=O)C4CCN(C(=O)CCCCCCCCCc5ccc6c(c5)n(C)c(=O)n6C5CCC(=O)NC5=O)C4)CC3)nc21 (stereo not shown) [Compound 90] | 45 | 67 | 34 | 5 |  |  |
| CC1CCCC1N1C(=O)C2(CC2)c2cnc(NC3CCN(S(=O)(=O)N4CCCN(C(=O)CCCCCc5cccc6c5n(C)c(=O)n6C5CCC(=O)NC5=O)CC4)CC3)nc21 (stereo not shown) [Compound 43] | 32 | 60 | 62 | 16 |  |  |
| Cn1nc(N2CCC(=O)NC2=O)c2ccc(N3CCN(Cc4cccc(S(=O)(=O)N5CCC(Nc6ncc7c(n6)N([C@@H]6CCC[C@@H](O)C6)C(=O)C76CC6)CC5)c4)CC3)cc21 [Compound 184] | 22 | 90 | 43 | 5.47 |  |  |
| C[C@@H](c1cccc(S(=O)(=O)N2CC[C@H](Nc3ncc4c(n3)N([C@@H]3CCC[C@@H](O)C3)C(=O)C43CC3)[C@H](F)C2)c1)N1CCN(c2ccc3c(N4CCC(=O)NC4=O)nn(C)c3c2)CC1 [Compound 197] | 8 | 91 | 33 | 10.5 |  |  |
| CC1CCCC1N1C(=O)C2(CC2)c2cnc(NC3CCN(S(=O)(=O)N4CC5(CCN(C(=O)CCCCc6ccc7c(c6)n(C)c(=O)n7C6CCC(=O)NC6=O)CC5)C4)CC3)nc21 (stereo not shown) [Compound 109] | 47 | 57 | 22 | 4 |  |  |
| CC1CCCC1N1C(=O)C2(CC2)c2cnc(NC3CCN(S(=O)(=O)N4CCC5(CCCN5C(=O)CCCc5ccc6c(c5)n(C)c(=O)n6C5CCC(=O)NC5=O)C4)CC3)nc21 (stereo not shown) [Compound 64] | 17 | 29 | 18 |  |  |  |
| CC1CCCC1N1C(=O)C2(CC2)c2cnc(NC3CCN(S(=O)(=O)N4CCCC45CCN(C(=O)CCCCc4ccc6c(c4)n(C)c(=O)n6C4CCC(=O)NC4=O)C5)CC3)nc21 (stereo not shown) [Compound 104] | 11 | 25 | 6 |  |  |  |
| C[C@H](c1cccc(S(=O)(=O)N2CC[C@H](Nc3ncc4c(n3)N([C@@H]3CCC[C@@H](O)C3)C(=O)C43CC3)[C@H](F)C2)c1)N1CCN(c2ccc3c(N4CCC(=O)NC4=O)nn(C)c3c2)[C@@H](C)C1 [Compound 207] | 23 | 90 | 38 | 3.5 |  |  |
| CC1CCCC1N1C(=O)C2(CC2)c2cnc(NC3CCN(S(=O)(=O)N4CC5(CCCN(CCOc6cccc7c6n(C)c(=O)n7C6CCC(=O)NC6=O)C5)C4)CC3)nc21 (stereo not shown) [Compound 138, 3-{3-Methyl-4-[2-(2-{4-[7′-(2-methylcyclopentyl)-6′-oxospiro[cyclopropane-1,5′-pyrrolo[2,3-d]pyrimidin]-2′-ylamino]piperidin-1-ylsulfonyl}-2,6-diazaspiro[3.5]nonan-6-yl)ethoxy]-2-oxo-1,3-benzodiazol-1-yl}piperidine-2,6-dione] | 3 | 45 | 14 |  |  |  |
| CC1CCCC1N1C(=O)C2(CC2)c2cnc(NC3CCN(S(=O)(=O)N4CC5(CN(C(=O)CCCc6cccc7c6n(C)c(=O)n7C6CCC(=O)NC6=O)C5)C4)CC3)nc21 (stereo not shown) [Compound 29] | 57 | 76 | 47 | 35 | 95.8 |  |
| CC1CCCC1N1C(=O)C2(CC2)c2cnc(NC3CCN(S(=O)(=O)N4CC5(CCN(C(=O)CCc6ccc7c(c6)n(C)c(=O)n7C6CCC(=O)NC6=O)CC5)C4)CC3)nc21 (stereo not shown) [Compound 59] | 17 | 46 | 24 |  |  |  |
| O=C1CCC(N2Cc3cc(N4CCC(N5CC(Oc6cccc(S(=O)(=O)c7ccc(Nc8ncc9c(n8)N([C@@H]8CCC[C@@H](O)C8)C(=O)C98CC8)cc7)c6)C5)CC4)ccc3C2=O)C(=O)N1 (stereo partly shown) [Compound 127] | 49 | 69 | 46 | 6 |  |  |
| Cn1nc(N2CCC(=O)NC2=O)c2ccc(C3CCN(Cc4ccnc(S(=O)(=O)N5CCC(Nc6ncc7c(n6)N([C@@H]6CCC[C@@H](O)C6)C(=O)C76CC6)CC5)c4)CC3)cc21 [Compound 165, 1-[6-(1-{[2-(4-{7′-[(1R,3R)-3-Hydroxycyclohexyl]-6′-oxospiro[cyclopropane-1,5′-pyrrolo[2,3-d]pyrimidin]-2′-ylamino}piperidin-1-ylsulfonyl)pyridin-4-yl]methyl}piperidin-4-yl)-1-methylindazol-3-yl]-1,3-diazinane-2,4-dione] | 13 | 78 | 44 | 10.1 |  |  |
| O=C1CCC(N2Cc3cc(N4CCC(CN5CCN(c6cccc(S(=O)(=O)N7CCC(Nc8ncc9c(n8)N([C@@H]8CCC[C@@H](O)C8)C(=O)C98CC8)CC7)c6)CC5)CC4)ccc3C2=O)C(=O)N1 (stereo partly drawn) [Compound 119, 3-{5-[4-({4-[3-(4-{7′-[(1R,3R)-3-hydroxycyclohexyl]-6′-oxospiro[cyclopropane-1,5′-pyrrolo [2,3-d]pyrimidin]-2′-ylamino}piperidin-1-ylsulfonyl)phenyl]piperazin-1-yl}methyl)piperidin-1-yl]-1-oxo-3H-isoindol-2-yl}piperidine-2,6-dione] |  | 70 | 22 | 3 |  | 25 |
| Cc1ccc(S(=O)(=O)N2CCC(Nc3ncc4c(n3)N([C@@H]3CCC[C@@H](O)C3)C(=O)C43CC3)CC2)cc1CN1CCC(c2ccc3c(N4CCC(=O)NC4=O)nn(C)c3c2)CC1 [Compound 168] | 26 | 71 | 40 | 2.91 |  |  |
| CC1CCCC1N1C(=O)C2(CC2)c2cnc(NC3CCN(S(=O)(=O)N4CCC5(CCCN5C(=O)CCc5ccc6c(c5)n(C)c(=O)n6C5CCC(=O)NC5=O)C4)CC3)nc21 (stereo not shown) [Compound 56] | 15 | 41 | 19 |  |  |  |
| CC1CCCC1N1C(=O)C2(CC2)c2cnc(NC3CCN(S(=O)(=O)N4CC5(CCCN(C(=O)CCCCc6cccc7c6n(C)c(=O)n7C6CCC(=O)NC6=O)C5)C4)CC3)nc21 (stereo not shown) [Compound 96] | 26 | 46 | 46 |  |  |  |
| O=C1CCC(N2Cc3cc(CN4CC(Oc5cccc(S(=O)(=O)N6CCC(Nc7ncc8c(n7)N([C@@H]7CCC[C@@H](O)C7)C(=O)C87CC7)CC6)c5)C4)ccc3C2=O)C(=O)N1 (stereo partly drawn) [Compound 132, 3-[5-({3-[3-(4-{7′-[(1R,3R)-3-Hydroxycyclohexyl]-6′-oxospiro[cyclopropane-1,5′-pyrrolo[2,3-d]pyrimidin]-2′-ylamino}piperidin-1-ylsulfonyl)phenoxy]azetidin-1-yl}methyl)-1-oxo-3H-isoindol-2-yl]piperidine-2,6-dione] | 7 | 48 | 47 |  |  |  |
| CC1CCCC1N1C(=O)C2(CC2)c2cnc(NC3CCN(S(=O)(=O)C4CCN(C(=O)CCCCCCCc5ccc6c(c5)n(C)c(=O)n6C5CCC(=O)NC5=O)C4)CC3)nc21 (stereo not shown) [Compound 84] | 30 | 53 | 47 | 21 |  |  |
